Experimental data from publication PMC9587990, “Molecular basis for isoform-selective inhibition of presenilin-1 by MRK-560” (Nature Communications, 2022).
Several values for one entry are separate records, joined by “and”; a condition that tells them apart may be missing. Equal entries are not always repeated. Entries after “also recorded” stand apart in the source; their conditions may differ. Where two headings read alike, the source gives them in different places.

How the values were obtained:
PS1 variant L282I = molecular target: T1, PS1 variant L282I (Homo sapiens, UniProt P49768, L282I); test: in vitro cleavage assay, AICD production by western blot; format: biochemical; conditions: 1 μM MRK-560, PS1 L282I
T1 construct: made in house
Experimental: (§1) Fig. 4 Thr281 and Leu282 of PS1 determine the isoform selectivity of MRK-560. a–c Individual and double residue swapping of Thr281 and Leu282 in PS1 with the corresponding Pro287 and Ile288 in PS2 alter their respective sensitives to MRK-560 accordingly. IC50 values for MRK-560 inhibition of the indicated PS1 (a) and PS2 (b) mutants were measured using the AlphaLISA assay that detects Aβ40 production. Please refer to Methods for experimental details. Data are presented as mean values ± SD. c Production of AICD by residue-swapped PS1 and PS2 mutants. The amount of AICD generated by the indicated variants in the presence of serial diluted MRK-560 is consistent with the corresponding IC50 shown in (a, b). […] The production of AICD was quantified by ImageJ. Red asterisks indicate the first concentration where the normalized production of AICD was reduced to less than 20%. Source data are provided as a Source Data file. Each cleavage assay was repeated three times. Error bars: SD.
(§2) We also examined the inhibitory effect of MRK-560 on the production of AICD by the PS1/PS2 variants (Fig. 4c).
(§3) All proteins used for the activity assay were sub-cloned, expressed and purified as described. Protein concentration was determined using the Bradford method. […] The cleavage reaction was conducted at 37 °C for 4 h. The cleaved products of these substrates were detected using a monoclonal antibody (1:1000 dilution, CW0299, CWBio) against the C-terminal Myc tag. Aβ40 production was detected using the AlphaLISA assay (PerkinElmer) as described. The IC50 values and the inhibition curves were calculated using Prism 8.0.

PS1 variant T281P = molecular target: T2, PS1 variant T281P (Homo sapiens, UniProt P49768, T281P); test: as above; format: biochemical; conditions: 1 μM MRK-560, PS1 T281P
T2 construct: made in house
Experimental: as §1, §2, §3

PS1 TL281-282PI = molecular target: T3, PS1 TL281-282PI (Homo sapiens, UniProt P49768, L282I/T281P); test: as above; format: biochemical; conditions: 10 μM MRK-560, PS1 TL281-282PI
T3 construct: made in house
Experimental: as §1, §2, §3

PS2(PI287-288TL) = molecular target: T4, PS2(PI287-288TL) (Homo sapiens, UniProt P49810, I288L/P287T); test: as above; format: biochemical; conditions: 200 nM MRK-560, PS2(PI287-288TL)
T4 construct: made in house
Experimental: as §1, §2, §3

[1] = test system: PS1 and PS2 with swapped loop-3; test: as above; format: biochemical, human
Experimental: as §1, with “Each cleavage assay was repeated three times. Error bars: SD.” left out
All proteins used for the activity assay were sub-cloned, expressed and purified as described. Protein concentration was determined using the Bradford method. […] The cleaved products of these substrates were detected using a monoclonal antibody (1:1000 dilution, CW0299, CWBio) against the C-terminal Myc tag. Aβ40 production was detected using the AlphaLISA assay (PerkinElmer) as described. The IC50 values and the inhibition curves were calculated using Prism 8.0.

PS1-complex over PS2 = conditions: cited from earlier work
[2] = molecular target: T5, PS1 TL281-282PI γ-secretase complex (Homo sapiens, UniProt P49768, L282I/T281P); test: in vitro cleavage assay, Aβ40 production by AlphaLISA; format: biochemical; conditions: for remaining activity at 0.002 µM / remaining activity at 0.01 µM / remaining activity at 0.04 µM / remaining activity at 0.2 µM / remaining activity at 1 µM / remaining activity at 10 µM: 4 h; for remaining activity at 0.002 µM / remaining activity at 0.01 µM / remaining activity at 0.04 µM / remaining activity at 0.2 µM / remaining activity at 1 µM / remaining activity at 10 µM / Caculated Aβ40 production / raw data from α-Lisa reading: PS1TL 281 282PI
T5 construct: made in house
Experimental: In total we generated six variants, including single and double residue swapping of Thr281/Leu282 in PS1 with Pro287/Ile288 in PS2, respectively. MRK-560 response to the six PS1/PS2 mutant-containing complexes, each purified to homogeneity, was examined in the in vitro cleavage assay (Fig. 4). All proteins used for the activity assay were sub-cloned, expressed and purified as described. Protein concentration was determined using the Bradford method. […] The cleavage reaction was conducted at 37 °C for 4 h. The cleaved products of these substrates were detected using a monoclonal antibody (1:1000 dilution, CW0299, CWBio) against the C-terminal Myc tag. Aβ40 production was detected using the AlphaLISA assay (PerkinElmer) as described. The IC50 values and the inhibition curves were calculated using Prism 8.0. Statistical analysis of Aβ40 was performed using Prism 8 (GraphPad Software, San Diego, CA, USA). IC50 were determined by a four-parameter logistic regression. The statistical details can be found in Figs. 1, 4 and legends. Data are expressed as mean ± SD.

[3] = test system: Aβ production in the brain; parameters: method as in PMID 17099072, PMID 16443723; conditions: cited from earlier work

O=S(=O)(NC1CCC(c2cc(F)ccc2F)(S(=O)(=O)c2ccc(Cl)cc2)CC1)C(F)(F)F (stereo not drawn) [MRK-560, N-[cis-4-[(4-chlorophenyl)sulfonyl]-4-(2,5-difluorophenyl)cyclohexyl]-1,1,1-trifluoromethanesulfonamide]
Generation of AICD (PS1 variant L282I): still detected | Generation of AICD (PS1 variant T281P): still detected | Generation of AICD (PS1 TL281-282PI): could not be completely inhibited | Generation of AICD (PS2(PI287-288TL)): completely inhibited | effect of swapping loop-3 between PS1 and PS2 on sensitivity to MRK-560 [1]: little influence on inhibition selectivity; also recorded: no detectable effect on the sensitivity | higher suppression of the PS1-complex over PS2 (PS1-complex over PS2): 37 folds | IC50 [2]: 195 ± 16 nM | remaining activity at 0.002 µM ([2]; MRK-560 2 nM, mean of 3 replicates, read-out: Normalized production (control=1), Mean): 116% | remaining activity at 0.002 µM ([2]; MRK-560 2 nM, replicates, read-out: Normalized production (control=1)): 115% | remaining activity at 0.01 µM ([2]; MRK-560 10 nM, mean of 3 replicates, read-out: Normalized production (control=1), Mean): 112% | remaining activity at 0.01 µM ([2]; MRK-560 10 nM, replicates, read-out: Normalized production (control=1)): 113% | remaining activity at 0.04 µM ([2]; MRK-560 40 nM, mean of 3 replicates, read-out: Normalized production (control=1), Mean): 105% | remaining activity at 0.04 µM ([2]; MRK-560 40 nM, replicates, read-out: Normalized production (control=1)): 103% | remaining activity at 0.2 µM ([2]; MRK-560 200 nM, mean of 3 replicates, read-out: Normalized production (control=1), Mean): 57.2% | remaining activity at 0.2 µM ([2]; MRK-560 200 nM, replicates, read-out: Normalized production (control=1)): 59.1% | remaining activity at 1 µM ([2]; MRK-560 1 μM, mean of 3 replicates, read-out: Normalized production (control=1), Mean): 11.1% | remaining activity at 1 µM ([2]; MRK-560 1 μM, replicates, read-out: Normalized production (control=1)): 11% | remaining activity at 10 µM ([2]; MRK-560 10 μM, mean of 3 replicates, read-out: Normalized production (control=1), Mean): 1.33% | remaining activity at 10 µM ([2]; MRK-560 10 μM, replicates, read-out: Normalized production (control=1)): 1.43% | Caculated Aβ40 production ([2]; MRK-560 2 nM, replicates): 380.9708 and 384.7930 and 381.0949 | raw data from α-Lisa reading ([2]; MRK-560 2 nM, replicates): 58097 and 58620 and 58114 | Caculated Aβ40 production ([2]; MRK-560 10 nM, replicates): 372.0557 and 371.8958 and 369.4343 | raw data from α-Lisa reading ([2]; MRK-560 10 nM, replicates): 56873 and 56851 and 56512 | Caculated Aβ40 production ([2]; MRK-560 40 nM, replicates): 339.5167 and 363.4357 and 337.7821 | raw data from α-Lisa reading ([2]; MRK-560 40 nM, replicates): 52356 and 55684 and 52113 | Caculated Aβ40 production ([2]; MRK-560 200 nM, replicates): 195.2943 and 180.8050 and 191.3579 | raw data from α-Lisa reading ([2]; MRK-560 200 nM, replicates): 31350 and 29146 and 30753 | Caculated Aβ40 production ([2]; MRK-560 1 μM, replicates): 36.3190 and 36.2828 and 37.2900 | raw data from α-Lisa reading ([2]; MRK-560 1 μM, replicates): 6150 and 6144 and 6311 | Caculated Aβ40 production ([2]; MRK-560 10 μM, replicates): 4.7413 and 3.9425 and 4.5046 | raw data from α-Lisa reading ([2]; MRK-560 10 μM, replicates): 864 and 729 and 824 | Aβ production in the brain [3]: reduced
